SMILES strings stand for the structures.

Usually IC50 stands for the midpoint of a concentration-inhibition curve. Broadly, the inhibition is the relative decrease from the control value, in per cent.

One series deals with T1, Human recombinant GSK3β (Homo sapiens, UniProt P49841).
T1 construct: purchased Millipore (Millipore Ibérica SAU)
The series can be described thus: GSK3β inhibition enzymatic assay (Kinase-Glo). In kind it is biochemical. As for the experimental part:
GSK3β inhibition enzymatic assay. Human recombinant GSK3β and the pre-phosphorylated polypeptide substrate were purchased from Millipore (Millipore Ibérica SAU). Kinase-Glo Luminescent Kinase Assay was obtained from Promega (Promega Biotech Ibérica, SL). ATP and all other reagents were from Sigma Aldrich (St. Louis, MO). Assay buffer contained 50 mM HEPES (pH 7.5), 1 mM EDTA, 1 mM EGTA, and 15 mM magnesium acetate.
Kinase-Glo assays were performed in assay buffer using black 96-well plates. In a typical assay, 10 μL (10 μM) of test compound (dissolved in DMSO) at 1 mM concentration and diluted in advance in assay buffer to the desired concentration) and 10 μL (20 ng) of enzyme were added to each well followed by 20 μL of assay buffer containing 25 μM substrate and 1 μM ATP. The final DMSO concentration […]
After 30 min incubation at 30 °C, the enzymatic reaction was stopped with 40 μL of Kinase-Glo reagent. Glow-type luminescence was recorded after 10 min using a FLUOstar Optima (BMG
Labtechnologies GmbH, Offenburg, Germany) multimode reader. The activity is proportional to the difference of the total and consumed ATP. The inhibitory activities were calculated based on maximal activities measured in the absence of inhibitor. The IC50 was defined as the concentration of each compound that reduces a 50 % the enzymatic activity with respect to that without inhibitors. […]
A general note: In Kinase-Glo more light means more ATP remaining.

In another series the target is T2, LRRK2 (Homo sapiens, UniProt Q5S007).
T2 construct: purchased ThermoFisher (assay run by the company)
T2 sequence (Q5S007 whole entry): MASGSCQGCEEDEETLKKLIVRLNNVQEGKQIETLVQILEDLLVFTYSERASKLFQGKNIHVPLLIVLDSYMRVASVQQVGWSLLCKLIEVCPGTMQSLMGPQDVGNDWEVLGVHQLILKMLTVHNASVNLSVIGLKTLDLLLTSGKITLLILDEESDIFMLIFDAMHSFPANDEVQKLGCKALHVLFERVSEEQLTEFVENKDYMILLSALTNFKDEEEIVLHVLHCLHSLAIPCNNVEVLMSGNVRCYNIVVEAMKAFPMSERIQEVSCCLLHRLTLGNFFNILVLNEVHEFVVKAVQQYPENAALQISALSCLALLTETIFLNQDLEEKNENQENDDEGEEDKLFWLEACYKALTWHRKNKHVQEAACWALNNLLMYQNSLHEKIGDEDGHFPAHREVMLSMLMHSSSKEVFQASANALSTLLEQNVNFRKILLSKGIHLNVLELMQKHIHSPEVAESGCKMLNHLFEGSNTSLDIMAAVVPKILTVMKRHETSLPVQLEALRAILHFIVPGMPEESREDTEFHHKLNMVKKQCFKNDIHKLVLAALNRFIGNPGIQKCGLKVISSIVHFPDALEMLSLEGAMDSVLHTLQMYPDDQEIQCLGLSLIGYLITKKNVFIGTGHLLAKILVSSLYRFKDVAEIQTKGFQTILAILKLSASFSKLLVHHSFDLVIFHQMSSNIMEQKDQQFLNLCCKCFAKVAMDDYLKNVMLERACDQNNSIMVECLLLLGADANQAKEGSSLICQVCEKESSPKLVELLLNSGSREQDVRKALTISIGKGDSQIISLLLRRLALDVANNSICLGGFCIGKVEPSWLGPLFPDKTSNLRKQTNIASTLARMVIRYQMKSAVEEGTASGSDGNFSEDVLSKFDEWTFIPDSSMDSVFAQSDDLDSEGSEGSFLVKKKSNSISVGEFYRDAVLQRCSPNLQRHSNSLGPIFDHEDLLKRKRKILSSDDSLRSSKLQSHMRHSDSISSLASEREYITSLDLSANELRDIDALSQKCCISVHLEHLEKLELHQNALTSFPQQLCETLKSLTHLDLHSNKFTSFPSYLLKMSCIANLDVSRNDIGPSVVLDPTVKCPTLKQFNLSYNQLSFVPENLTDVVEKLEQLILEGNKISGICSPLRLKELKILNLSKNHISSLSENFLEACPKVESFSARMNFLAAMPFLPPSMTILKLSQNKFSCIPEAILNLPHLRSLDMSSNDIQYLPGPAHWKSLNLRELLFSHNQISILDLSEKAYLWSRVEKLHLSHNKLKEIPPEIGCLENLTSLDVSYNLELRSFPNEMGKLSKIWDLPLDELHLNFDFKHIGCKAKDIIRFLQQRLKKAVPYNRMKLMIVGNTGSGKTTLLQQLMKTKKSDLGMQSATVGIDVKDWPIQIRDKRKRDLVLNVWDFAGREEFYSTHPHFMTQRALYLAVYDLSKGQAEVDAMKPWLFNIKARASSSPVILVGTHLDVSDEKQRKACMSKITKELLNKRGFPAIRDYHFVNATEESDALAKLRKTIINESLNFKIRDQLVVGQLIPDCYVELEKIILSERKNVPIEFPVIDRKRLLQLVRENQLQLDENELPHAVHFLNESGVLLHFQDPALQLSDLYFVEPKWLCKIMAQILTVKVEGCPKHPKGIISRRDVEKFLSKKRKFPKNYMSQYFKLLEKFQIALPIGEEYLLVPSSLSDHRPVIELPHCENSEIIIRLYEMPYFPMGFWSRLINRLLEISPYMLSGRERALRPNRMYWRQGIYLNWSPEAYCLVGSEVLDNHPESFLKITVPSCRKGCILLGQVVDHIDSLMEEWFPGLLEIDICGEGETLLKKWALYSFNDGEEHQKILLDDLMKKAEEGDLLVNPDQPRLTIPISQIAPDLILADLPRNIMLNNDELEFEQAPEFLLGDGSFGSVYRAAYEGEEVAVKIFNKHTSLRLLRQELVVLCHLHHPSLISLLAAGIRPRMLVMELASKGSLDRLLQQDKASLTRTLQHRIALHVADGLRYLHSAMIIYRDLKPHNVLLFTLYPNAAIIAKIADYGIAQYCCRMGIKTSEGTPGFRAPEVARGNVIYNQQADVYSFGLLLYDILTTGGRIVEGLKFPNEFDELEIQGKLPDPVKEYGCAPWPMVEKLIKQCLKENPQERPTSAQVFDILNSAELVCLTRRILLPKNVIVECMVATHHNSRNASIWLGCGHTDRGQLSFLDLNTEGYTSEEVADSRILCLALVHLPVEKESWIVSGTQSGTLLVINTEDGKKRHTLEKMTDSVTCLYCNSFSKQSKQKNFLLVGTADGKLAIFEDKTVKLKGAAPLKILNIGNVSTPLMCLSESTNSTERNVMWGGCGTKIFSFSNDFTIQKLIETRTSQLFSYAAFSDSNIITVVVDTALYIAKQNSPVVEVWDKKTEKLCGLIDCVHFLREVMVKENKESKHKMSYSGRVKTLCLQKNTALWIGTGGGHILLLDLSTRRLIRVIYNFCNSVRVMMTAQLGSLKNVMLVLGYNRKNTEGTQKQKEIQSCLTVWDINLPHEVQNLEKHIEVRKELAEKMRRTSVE
The series can be described thus: LRRK2 inhibition enzymatic assay (Adapta, ThermoFisher). It counts as biochemical.

The target of a further series is BACE1 (Homo sapiens, UniProt P56817). The series can be described thus: BACE1 enzymatic assay (FRET). In kind it is biochemical.
Chain of BACE1 (P56817 46-501): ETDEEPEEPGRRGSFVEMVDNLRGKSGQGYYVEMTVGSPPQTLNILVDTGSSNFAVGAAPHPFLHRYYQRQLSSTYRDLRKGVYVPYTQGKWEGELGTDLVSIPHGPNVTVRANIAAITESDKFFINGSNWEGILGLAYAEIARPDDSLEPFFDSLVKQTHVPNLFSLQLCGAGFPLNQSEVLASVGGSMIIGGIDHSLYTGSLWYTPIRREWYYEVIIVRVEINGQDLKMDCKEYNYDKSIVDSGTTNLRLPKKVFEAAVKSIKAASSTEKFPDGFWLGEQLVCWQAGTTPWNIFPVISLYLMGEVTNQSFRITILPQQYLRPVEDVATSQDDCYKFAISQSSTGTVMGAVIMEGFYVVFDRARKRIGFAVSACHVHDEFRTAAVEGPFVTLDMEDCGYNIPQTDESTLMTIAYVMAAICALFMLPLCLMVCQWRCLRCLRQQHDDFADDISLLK
A short description of a further series: PAMPA-BBB test. In kind it is in vitro ADME. The following applies: for Papp at 2.5 h: read-out: Pe exp. Background: In PAMPA a lipid-coated filter parts donor from acceptor wells.
Another series concerns SH-SY5Y cells. Nature of the series: Okadaic acid-induced cell death model, viability of SH-SY5Y cells. It counts as cell-based, human. Conditions: OA 30 nM, 24 h, compound 1 and 5 µM. As for the experimental part:
(§1) page 35: enzyme concentration (1 U/mL). Inhibitor screening at 10 μM. The mixture was incubated for 60 min at 25 °C under dark conditions and then stopped with 2.5 M sodium acetate. Fluorescence was measured with a FLUOstar Optima (BMG Labtechnologies GmbH, Offenburg, Germany) microplate reader at 545 nm excitation and 585 nm emission. Evaluation of BACE Inhibitors Kinetics. To evaluate the mechanism of BACE1 inhibition of the compounds, substrate-dependent kinetic experiments were performed. BACE activity were measured at five different concentrations substrate (1000 -62,5 μM) in the absence or presence of the select inhibitor at two different concentrations. The results are presented as double reciprocal Lineweaver-Burk plots (1/V vs 1/[S]) Figure S1. Cell culture and treatments. […] The absorbance values were determined at 590 nm. Cell viability was expressed as a percent of OD of control cells, the value of which was defined as 100%. […] Absorbance was measured using a Varioskan Flash multiplate reader (Thermo Scientific) at test 550 nm and reference 664 nm wave-lengths. […] Levels of Aβ40 and Aβ42 were quantified by sandwich ELISAs (Wako, Osaka, Japan) from cellular lysates and conditioned media collected. […] Compounds to be determined their ability to pass the brain barrier (0.5-1 mg) were dissolved in 250 μL of DMSO and 4750 μL of PBS pH 7.4 was carefully added to afford a final […]

For series [1], the system named is SK-APP cells. Nature of the series: Aβ40 and Aβ42 levels in SK-APP cells (sandwich ELISA). Conditions: 10 μM, 48 h treatment. It counts as cell-based, human. As for the experimental part: page 35: enzyme concentration (1 U/mL). Inhibitor screening at 10 μM. The mixture was incubated for 60 min at 25 °C under dark conditions and then stopped with 2.5 M sodium acetate. Fluorescence was measured with a FLUOstar Optima (BMG Labtechnologies GmbH, Offenburg, Germany) microplate reader at 545 nm excitation and 585 nm emission. Evaluation of BACE Inhibitors Kinetics. To evaluate the mechanism of BACE1 inhibition of the compounds, substrate-dependent kinetic experiments were performed. BACE activity were measured at five different concentrations substrate (1000 -62,5 μM) in the absence or presence of the select inhibitor at two different concentrations. The results are presented as double reciprocal Lineweaver-Burk plots (1/V vs 1/[S]) Figure S1. Cell culture and treatments. SK-N-MC cells stably expressing the human isoform APP695 (SK-APP cell line […]1) were generated by transfection of SK-N-MC cells with a pCDNA3-APP expression vector, and kindly provided by Dr. MJ Bullido. These cells were cultured in DMEM (Thermo Fisher) medium supplemented with 10% FBS (Thermo Fisher), 1 mM glutamine (Sigma- Aldrich), and 100 unit/ml penicillin (Lonza) and […] streptomycin (Lonza). Cell cultures were maintained in a 5% CO2, humidified atmosphere at 37 °C. SH-SY5Y cells were obtained from the American Type Culture Collection and grown in DMEM media (Gibco), supplemented with 10% foetal bovine serum, and 1% penicillin/streptomycin (Invitrogen). The cells were grown at 37 °C in a humidified 5% CO2 atmosphere. For the treatments, all the compounds were dissolved in dimethyl sulfoxide (DMSO, from Sigma) at an initial stock concentration of 10 mM. […] working solutions were obtained from the dilution of the stock solutions in DMEM media (DMSO control solutions were prepared similarly to the compounds). Okadaic acid (OA, Sigma-Aldrich) was dissolved in DMSO at an initial stock concentration of 60 μM and a 250X working solution was obtained from the dilution of the stock solution in DMEM. All the compounds (250x solutions) were added directly into the wells at the indicated final concentrations for 1 hour before the treatment with OA at a final concentration of 30 nM. DMSO was added at the appropriate concentration to the 34 page 36: control-untreated cells. The cells were maintained in the presence of the OA and the different compounds for 24h. Measurement of cell viability. Cell viability assays were carried out using a 3- […] (Sigma-Aldrich) in 96-well cell culture plates. All cells were then incubated with a 0.5 mg/ml MTT solution (Sigma-Aldrich) at 37 °C for 4 h and then with cell lysis […] The absorbance values were determined at 590 nm. Cell viability was expressed as a percent of OD of control cells, the value of which was defined as 100%. Cell viability in SH-SY5Y were carried out following the same procedure but seeding the cells in 24 well multiplates. Absorbance was measured using a Varioskan Flash multiplate reader (Thermo Scientific) at test 550 nm and reference 664 nm wave-lengths. Compound concentration for SK-APP line was 10 μM and for the SH-SY5Y was 1 and 5 μM. Immunoassays. Levels of Aβ40 and Aβ42 were quantified by sandwich ELISAs (Wako, Osaka, Japan) from cellular lysates and conditioned media collected. CNS penetration: in vitro PAMPA-BBB test. Prediction of the brain penetration was evaluated using a parallel artificial membrane permeability assay (PAMPA).1 Nine quality control compounds (mentioned below) of know BBB permeability were included in each experiment to validate the analysis set.2 Commercial drugs […] dissolved in 250 μL of DMSO (Sigma-Aldrich). 25 μL of these compound stock solutions were taken and 225 μL of DMSO and 4750 μL of PBS pH 7.4 buffer were added to reach 5% of DMSO concentration in the experiment and a final […] Compounds to be determined their ability to pass the brain barrier (0.5-1 mg) were dissolved in 250 μL of DMSO and 4750 μL of PBS pH 7.4 was carefully added to afford a final […]

The target of a further series is CK1δ (Homo sapiens, UniProt P48730). Nature of the series: CK1δ inhibition enzymatic assay (Kinase-Glo). In kind it is biochemical. As for the experimental part:
CK1δ inhibition enzymatic assay. The “Kinase-Glo” Kit from Promega was used to screen compounds for activity against CK1δ Kinase-Glo assays were performed in assay buffer using black 96-well plates. In a typical assay, 10 μl of test compound (dissolved in DMSO at 1 mM concentration and diluted in advance in assay buffer to the desired concentration) 10 μl (16 ng) of enzyme were added to each well followed by 20 µl of assay buffer containing 0,1 % casein as substrate […]
exceed 1%. After 60-min incubation at 30°C the enzymatic reaction was stopped […]
with 40 μl of Kinase-Glo reagent. Glow-type luminescence was recorded after 10 min using a FLUOstar Optima (BMG Labtechnologies GmbH, Offenburg, Germany) multimode reader. The activity is proportional to the difference of the total and consumed ATP. The inhibitory activities were calculated on the basis of maximal activities measured in the absence of inhibitor. The IC50 was defined as the concentration of each compound that reduces a 50% the enzymatic activity with respect to that without inhibitors. […]
Ibérica SAU). Kinase-Glo Luminescent Kinase Assay was obtained from Promega (Promega Biotech Ibérica, SL). ATP and all other reagents were from Sigma Aldrich (St. Louis, MO). Assay buffer contained 50 mM HEPES (pH 7.5), 1 mM EDTA, 1 mM EGTA, and 15 mM magnesium acetate. […]

Series [2] deals with SK-APP cells. The series can be described thus: Cell viability (MTT) in SK-APP cells. It counts as cell-based, human. Conditions: 10 μM, 48 hours. As for the experimental part: as §1
[3] abbreviates: PAMPA-BBB, PBS pH 7.4/DMSO 95/5, 2.5 h, room temperature.

Chain of CK1δ (P48730 whole entry): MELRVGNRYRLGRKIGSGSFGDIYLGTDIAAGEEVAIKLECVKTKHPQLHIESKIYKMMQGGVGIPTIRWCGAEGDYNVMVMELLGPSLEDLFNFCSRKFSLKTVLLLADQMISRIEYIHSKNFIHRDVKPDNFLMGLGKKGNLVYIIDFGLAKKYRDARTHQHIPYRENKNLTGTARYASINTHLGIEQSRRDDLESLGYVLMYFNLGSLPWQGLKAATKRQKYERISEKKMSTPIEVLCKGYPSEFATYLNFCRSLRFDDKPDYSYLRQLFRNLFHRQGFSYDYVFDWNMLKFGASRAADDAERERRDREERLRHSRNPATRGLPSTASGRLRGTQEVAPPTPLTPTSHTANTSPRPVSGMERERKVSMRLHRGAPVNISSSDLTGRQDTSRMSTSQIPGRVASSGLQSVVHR
T1 sequence (P49841 whole entry): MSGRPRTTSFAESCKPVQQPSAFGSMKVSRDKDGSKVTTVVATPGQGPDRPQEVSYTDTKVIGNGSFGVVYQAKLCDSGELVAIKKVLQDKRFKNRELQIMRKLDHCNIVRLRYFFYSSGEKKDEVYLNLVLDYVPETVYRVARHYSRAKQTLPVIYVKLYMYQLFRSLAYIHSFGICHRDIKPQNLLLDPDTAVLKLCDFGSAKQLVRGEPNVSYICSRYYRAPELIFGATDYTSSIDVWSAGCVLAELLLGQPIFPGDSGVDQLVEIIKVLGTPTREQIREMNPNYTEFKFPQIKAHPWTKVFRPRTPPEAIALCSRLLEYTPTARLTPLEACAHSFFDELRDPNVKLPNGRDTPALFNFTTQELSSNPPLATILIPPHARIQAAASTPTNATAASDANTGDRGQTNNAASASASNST
Method for BACE1: BACE1 enzymatic assay. BACE1 in vitro assays were carried out using FRET.
μM) carrying the Swedish mutation and containing a rhodamine as a fluorescence donor and a quencher acceptor at each end was used. The intact substrate is weakly fluorescent and becomes highly fluorescent upon enzymatic cleavage.
The assays were conducted in 50 mM sodium acetate buffer, pH 4.5, in a final
Method for PAMPA-BBB test: dissolved in 250 µL of DMSO (Sigma-Aldrich). 25 µL of these compound stock
solutions were taken and 225 µL of DMSO and 4750 µL of PBS pH 7.4 buffer
compound concentration in the range of 0.2 to 1.1 mM. Compounds to be
µL of DMSO and 4750 µL of PBS pH 7.4 was carefully added to afford a final
compound concentration in the range of 0.2 to 1.1 mM. Solutions were filtered
using filter PDVF membrane units (diameter 30 mm, pore size 0.45 μm, Symta).
10 µL of each solution were taken and diluted 10-fold with PBS/DMSO (95/5) for
HPLC-MS analysis. The acceptor 96-well plate (Multiscreen®, catalog no.
MAMCS9610, Millipore) was filled with 180 µL of PBS/DMSO (95/5). The donor
96-well plate (Multiscreen® IP Sterile Plate PDVF membrane, pore size is 0.45
M, catalog no. MAIPS4510, Millipore) was coated with 4 µL 20 mg·mL-1 of
for 5 min and then 180 µL of each compound solution was added. Then the donor
plate was put on the acceptor plate and kept for 2.5 h at room temperature. After
incubation, samples were collected from the acceptor plate and diluted 10-fold
with PBS/DMSO (95/5) for HPLC-MS analysis and compared to HPLC-MS of
initial solutions. Absorbance peak of each compound was determined by MS
detection and was used to calculate the concentration of compounds and
Every sample was analysed in two independent
runs. HPLC-MS was performed using a HPLC-MS equipment from Thermo
Fisher coupled to a Finnigan TM LXQ TM detector. Each compound was
analysed using a Sunfire column C18, 3.5 μm (50 mm x 4.6 mm) and acetonitrile
and Milli-Q water (with 0.1% formic acid) as mobile phase. The standard gradient

Consider `CCn1sc(=O)n(Cc2cn(Cc3ccc(C(=O)Nc4nc5ccccc5s4)cc3)nn2)c1=O` [compound 14], for which the IC50 came to 2.36 ± 0.27 µM on Human recombinant GSK3β, 0.82 ± 0.14 µM against LRRK2 and 3.31 ± 0.27 µM on BACE1. Besides, the CNS prediction result in the series “PAMPA-BBB test” (PAMPA-BBB) is given as “CNS- (CNS‐ (red) for compounds with Pe <1.88×10^−6 cm s^−1)”. Also, the Pe exp in the series “PAMPA-BBB test” (setting [3]) is 0 10-6 cm s-1. Besides, the “Neuroprotection against okadaic acid (OA) toxicity” value with SH-SY5Y cells is reported as “rescue from the toxic effect of OA”. Moreover, the “Aβ42 levels in cellular lysates (intracellular)” value in the series on SK-APP cells [1] was “unchanged”. For the same molecule, in the series on SK-APP cells [1], the “Aβ42 levels in extracellular fluid” value was “significant decrease”.

The molecule `CCn1sc(=O)n(Cc2cn(Cc3ccc(CC(=O)Nc4nc5ccccc5s4)cc3)nn2)c1=O` [compound 15] came in with an IC50 against CK1δ of 1.25 ± 0.21 µM. For the same molecule, the half-inhibitory concentration (IC50) at Human recombinant GSK3β is 3.85 ± 0.32 µM. Moreover, the inhibition at 10 µM at BACE1 (read-out: BACE1 enzyme inhibition at 10 μM) is 30%. The CNS prediction entry in “PAMPA-BBB test” (PAMPA-BBB) is listed as “CNS+ (CNS+ (green) for compounds with Pe >3.20×10^−6 cm s^−1)”. Further, the Papp at 2.5 h in “PAMPA-BBB test” (setting [3]) was 5.08 ± 0.63 ×10⁻⁶ cm/s. For the same molecule, the “Neuroprotection against okadaic acid (OA) toxicity” value in the series on SH-SY5Y cells is on record as “rescue from the toxic effect of OA”. Further, in the series on SK-APP cells [1], the “Aβ40 levels in cellular lysates” value is reported as “decrease”, the “Aβ40 levels in extracellular fluid” value is recorded as “decrease”, the “Aβ42 levels in cellular lysates (intracellular)” value is “unchanged” and the “Aβ42 levels in extracellular fluid” value was “significant decrease”.

Regarding `O=C(Cc1ccc(Cn2cc(COc3ccc(/N=C4\C(=O)Nc5ccccc54)cc3)nn2)cc1)Nc1nc2ccccc2s1` [compound 16], the IC50 against CK1δ stood at 6.47 ± 0.68 µM; against LRRK2 it was 13.5 ± 5.23 µM; against BACE1, 7.24 ± 0.38 µM. The “Cell viability of SK-APP cells” value in the series with SK-APP cells [2] is reported as “significant decrease”. In addition, the CNS prediction entry in “PAMPA-BBB test” (PAMPA-BBB) is “CNS+/CNS- (CNS+/CNS‐ (yellow) for compounds with Pe between both values)”. Besides, in the series “PAMPA-BBB test” (setting [3]), the Papp at 2.5 h was determined as 3.07 ± 0.25 ×10⁻⁶ cm/s.

Turning to `O=C(Cc1ccc(Cn2cc(COc3ccc(C(=O)Nc4nc5ccccc5s4)cc3)nn2)cc1)Nc1nc2ccccc2s1` [compound 17], the inhibition at 10 µM on CK1δ (read-out: CK1δ enzyme inhibition at 10 μM) came to 26%. Moreover, in the series with SK-APP cells [2], the “Cell viability of SK-APP cells” value is reported as “significant decrease”. For the same molecule, the figures for the IC50 against LRRK2 and against BACE1 were 7.09 ± 2.22 µM and 2.51 ± 0.43 µM, respectively. Also, the “Solubility in the conditions of the PAMPA experiment” value in the series “PAMPA-BBB test” (PBS pH 7.4 with 5% DMSO) was “insoluble”.
